Measured values published in US5728686A, “Alkylxanthine phosphonates and alkylxanthine phosphine oxides and their use as pharmaceuticals” (Hoechst Aktiengesellschaft, priority 1996, dated 1998).
In brackets after ≈: the same amount, converted by molar mass. Where two headings read alike, the source gives them in different places.

Experiments:
[1] = test system: muscle group (gastrocnemius, plantaris and soleus) of the immobilized right rear extremity; assay: rat muscle function test: direct electrical stimulation of muscle group after 3 weeks' immobilization; type: in vivo, male Wistar rats; settings: oral, 1x per day for 3 weeks, as a rule 25 mg/kg, ≤-12% classified as active; for Work (performed work, right/left difference): isotonic stimulation, control approx. -25%; for Force (force under the contraction curve, right/left difference): isometric stimulation, control difference approx. 25%
From the text: (§1) 1. Activity in the rat muscle function test
(§2) Male Wistar rats (body weight about 300 g) were kept under standard conditions with feed and water ad libitum. The right rear extremity was immobilized by fitting a kind of "shoe" to the animals under short-term anaesthesia. Two ergonomically fitted halves of the "shoe" were cast from a liquid plastic material which is also used for the production of dental prostheses, these were put onto the animal under brief anaesthesia and joined with the aid of a wire. The material is light but hard, so that the animals cannot gnaw the material, and the "shoe" can be opened at any time to examine the condition of the immobilized extremity. The two halves were moreover padded out with chamois leather in order to avoid compressions and possible injuries due to rubbing. The system also has the advantage that the angle of immobilization is standardized in all animals; this would not be possible with a plaster cast. The chosen angle allows the animals to take up a normal sitting position despite the "shoe" and also to carry the body weight using this extremity. Only complete stretching or bending of the leg is impossible.
(§3) After 3 weeks' immobilization of the right rear extremity and simultaneous oral administration of test preparations (1× per day using a stomach tube; as a rule 25 mg/kg of body weight, in carboxymethylcellulose, the animals were weighed and anaesthetized with pentobarbital (35 mg/kg i.p.). Functional parameters were measured during direct electrical stimulation of a muscle group (gastrocnemius, plantaris and soleus). This muscle group, merely called "muscle" in the following, was exposed at the ankle tendon and tied to a force transducer via the tendon.
To determine the contractile force, the muscles were stimulated isometrically, i.e. a preload of 0.5N was applied and the muscle was stimulated by means of a series of electrical pulses, which led to a maximum contraction, every 0.7 sec for 80 msec for a period of 15 min. […] The area under this contraction curve was evaluated and the difference in percent between the right atrophic and left normal muscle compared (force under the contraction curve as difference in percent (Δ%)). The difference in the control group is approximately 25%.
An isotonic muscle stimulation was used to determine the performed work of the muscle over time. In this type of measurement, the shortening of the muscle during contraction is used as a basis. To this end, a preload which corresponds to the body weight was applied to the muscles. A series of stimulation pulses (80 msec) were triggered every 3 sec and the muscle was stimulated for 15 min. The data (contraction force and distance travelled) were converted to the work performed in the unit J using an automated system. The difference in the work performed between the immobilized atrophic and the normal muscle in the control animals was approximately -25%.
Values which are positive indicate that the functional parameters of the immobilized muscle were better than those of the contralateral normal muscle.

[2] = test system: isolated guinea pig lung strips, Platelet activating factor (PAF); assay: antagonist of PAF-induced contraction of isolated guinea pig lung strips; type: cell-based; settings: Cavia porcellus, read-out: Anticontractile action (lung), PAF: concentration range corresponding to the IC50 value
From the text: 4. Activity as an antagonist of the contraction of isolated guinea pig lung strips
The test carried out is based on the same principle as the test indicated in the pharmacological test 3; however, lung strips are used here.
Preparation of the organ sections and experimental procedure:
The guinea pig is sacrificed under laughing gas anaesthesia. The entire pulmonary tract is exposed starting from the trachea. The lobes of the lung are cut in a circular fashion such that 3 mm wide strips are formed. The strips of the upper lobes are divided in order to obtain a total of six approximately equal size strips. The strips are suspended in the organ baths under a preload of 4 g. The nutrient solutions used are modified Krebs Henseleit solutions. When using "Platelet activating factor" (PAF) as an […], the composition of this solution corresponds to that for the agonist SP in "Test 3"; for the agonist LTD4 a Krebs Henseleit solution as in the case of the agonist KCl (Test 3) is used. 95% by volume O2, 5% by volume CO2 is used for bubbling through the bath; the bath temperature is 37° C. The experimental procedure is carried out in a therapeutically cumulative methodology, using the dosage graduations 1, 3, 6 and 10 μg/ml.
The experimental animals, organ bath, vehicles and manner of administration correspond to that stated in pharmacological test 3.
All numerical values are indicated in the unit μg/ml and relate to the concentration range of tested compound of the formula I (see example numbers in Table 1) which is necessary in order to cause a contraction which corresponds to the IC50 value.

[3] = test system: soleus muscle; assay: rat muscle function test: muscle weight (atrophy of immobilized extremity); type: in vivo, male Wistar rats; settings: oral, 1x per day for 3 weeks, as a rule 25 mg/kg, difference ≤25% classified as an effect
From the text: as §1, §2
In spite of this, a significant decrease in the skeletal muscle mass (atrophy) of the immobilized extremity occurred, to be precise up to -35% in comparison with the contralateral nonimmobilized rear extremity. As the soleus muscle was the most severely affected, the changes in muscle weight after administration of preparation shown in Table 1 relate to this muscle. A difference of ≤25% between the right immobilized and left non-immobilized rear extremity was classified as an effect.
as §3

[4] = lung strips, PAF, cumulative, 37° C.

CCOP(=O)(CCCCn1cnc2c1c(=O)n(C)c(=O)n2C)OCC [Example 1, Diethyl [4-(1,3-dimethylxanthin-7-yl)butyl]phosphonate]
Work (performed work, right/left difference) [1]: -8 Δ %
IC50 [2]: 3 to 9 µg/mL (≈ 8.06 to 24.2 µM)

CCOP(=O)(CCCCn1cnc2c1c(=O)[nH]c(=O)n2C)OCC [Example 3, Diethyl [4-(3-methylxanthin-7-yl)butyl]phosphonate]
Force (force under the contraction curve, right/left difference) [1]: 0 Δ %
Work (performed work, right/left difference) [1]: 0 Δ %
Muscle weight (right/left difference) [3]: 0 Δ %

CCOP(=O)(CCCCn1cnc2c1c(=O)n(CCCCC(C)(C)O)c(=O)n2C)OCC [Example 5]
Force (force under the contraction curve, right/left difference) [1]: +10 Δ %
Work (performed work, right/left difference) [1]: +10 Δ %
Muscle weight (right/left difference) [3]: 0 Δ %

CCOCn1c(=O)c2c(ncn2CCCCP(=O)(OCC)OCC)n(C)c1=O [Example 6, Diethyl [4-(1-ethoxymethyl-3-methylxanthin-7-yl)butyl]phosphonate]
Force (force under the contraction curve, right/left difference) [1]: -4 Δ %
Work (performed work, right/left difference) [1]: -4 Δ %
Muscle weight (right/left difference) [3]: 0 Δ %

CCOP(=O)(CCCCn1c(=O)c2c(ncn2CCCCP(=O)(OCC)OCC)n(C)c1=O)OCC [Example 7, Diethyl 4-{7-[4-(diethoxyphosphoryl)butyl]-3-methylxanthin-1-yl}butyl-phosphonate]
IC50 [2]: 3 to 6 µg/mL (≈ 5.45 to 10.9 µM)

CCOP(=O)(CCCn1cnc2c1c(=O)n(C)c(=O)n2C)OCC [Example 8, Diethyl [3-(1,3-dimethylxanthin-7-yl)propyl]phosphonate]
Force (force under the contraction curve, right/left difference) [1]: -11 Δ %
Work (performed work, right/left difference) [1]: -7 Δ %
IC50 [2]: 5 to 10 µg/mL (≈ 14 to 27.9 µM)

CCCCn1c(=O)c2c(ncn2CCCCCP(=O)(OCC)OCC)n(CCCC)c1=O [Example 10, Diethyl [5-(1,3-dibutylxanthin-7-yl)pentyl]phosphonate]
Force (force under the contraction curve, right/left difference) [1]: +1 Δ %
Work (performed work, right/left difference) [1]: -9 Δ %
Muscle weight (right/left difference) [3]: -13 Δ %

CCCn1c(=O)c2c(ncn2CCCCP(=O)(OCC)OCC)n(C)c1=O [Example 13]
Force (force under the contraction curve, right/left difference) [1]: +5 Δ %
Work (performed work, right/left difference) [1]: -3 Δ %
Muscle weight (right/left difference) [3]: -24 Δ %
IC50 [2]: 6 to 10 µg/mL (≈ 15 to 25 µM)

CCOP(=O)(OCC)C(C)(C)CCCCn1c(=O)c2c(ncn2CCOC)n(C)c1=O [Example 22, Diethyl [5-(7-methoxyethyl-3-methylxanthin-1-yl)-1,1-dimethylpentyl]-phosphonate]
Force (force under the contraction curve, right/left difference) [1]: -3 Δ %
Work (performed work, right/left difference) [1]: -13 Δ %
Muscle weight (right/left difference) [3]: 0 Δ %

Cn1c(=O)n(CCCCP(=O)(O)O)c(=O)c2[nH]cnc21 [Example 25, Diammonium [4-(3-methylxanthin-1-yl)butyl]phosphonate]
Force (force under the contraction curve, right/left difference) [1]: +7 Δ %
Work (performed work, right/left difference) [1]: -12 Δ %
IC50 [2, 4]: 5 to 15 µg/mL

CCOCn1cnc2c1c(=O)n(CCCCP(=O)(OCC)OCC)c(=O)n2C [Example 26, Diethyl [4-(7-ethoxymethyl-3-methylxanthin-1-yl)butyl]phosphonate]
Force (force under the contraction curve, right/left difference) [1]: -3 Δ %
Work (performed work, right/left difference) [1]: -17 Δ %
Muscle weight (right/left difference) [3]: -22 Δ %

CCOCn1cnc2c1c(=O)n(CCCCP(=O)(O)O)c(=O)n2C.N.N [Example 28, Diammonium [4-(7-ethoxymethyl-3-methylxanthin-1-yl)butyl]phosphonate]
IC50 [2, 4]: 3 to 9 µg/mL

CCOP(=O)(CCCCn1c(=O)c2c(ncn2CCOC)n(C)c1=O)OCC [Example 31, Diethyl [4-(7-methoxyethyl-3-methylxanthin-1-yl)butyl]phosphonate]
IC50 [2]: 6 to 10 µg/mL (≈ 14.4 to 24 µM)

CCOCn1cnc2c1c(=O)n(CCCP(=O)(OCC)OCC)c(=O)n2C [Example 36, Diethyl [3-(7-ethoxymethyl-3-methylxanthin-1-yl)propyl]phosphonate]
IC50 [2]: 5 to 15 µg/mL (≈ 12.4 to 37.3 µM)

CCOP(=O)(CCCCn1c(=O)c2[nH]cnc2n(CC)c1=O)OCC [Example 37, Diethyl [4-(3-ethylxanthin-1-yl)butyl]phosphonate]
IC50 [2]: 1 to 3 µg/mL (≈ 2.69 to 8.06 µM)

CCOP(=O)(CCCCn1c(=O)c2c(ncn2CCOC)n(CC)c1=O)OCC [Example 45, Diethyl [4-(3-ethyl-7-methoxyethylxanthin-1-yl)butyl]phosphonate]
IC50 [2]: 1 to 3 µg/mL (≈ 2.32 to 6.97 µM)

CCOCn1cnc2c1c(=O)n(CCCCP(=O)(OCC)OCC)c(=O)n2Cc1ccccc1 [Example 53, Diethyl [4-(3-benzyl-7-ethoxymethylxanthin-1-yl)butyl]phosphonate]
Force (force under the contraction curve, right/left difference) [1]: -3 Δ %
Work (performed work, right/left difference) [1]: +10 Δ %
Muscle weight (right/left difference) [3]: 0 Δ %
IC50 [2]: 1 to 3 µg/mL (≈ 2.03 to 6.09 µM)

CCOCn1cnc2c1c(=O)n(CCCCP(=O)(OCC)OCC)c(=O)n2CC [Example 54, Diethyl [4-(7-ethoxymethyl-3-ethylxanthin-1-yl)butyl]phosphonate]
IC50 [2]: 1 to 3 µg/mL (≈ 2.32 to 6.97 µM)

CCOP(=O)(CCCCCn1c(=O)c2c(ncn2CCC(C)C)n(C)c1=O)OCC [Example 56]
Force (force under the contraction curve, right/left difference) [1]: 0 Δ %
Work (performed work, right/left difference) [1]: 0 Δ %

CCCCn1c(=O)c2c(ncn2CP(C)(C)=O)n(CCCC)c1=O [Example 67, [1-(1,3-Dibutylxanthin-7-yl)methyl]dimethylphosphine Oxide]
Force (force under the contraction curve, right/left difference) [1]: -9 Δ %
Work (performed work, right/left difference) [1]: -10 Δ %

CP(C)(=O)Cn1c(=O)c2c(ncn2CC2CC2)n(-c2ccccc2)c1=O [Example 71, [1-(7-Cyclopropylmethyl-3-phenylxanthin-1-yl)methyl]dimethylphosphine Oxide]
Force (force under the contraction curve, right/left difference) [1]: +4 Δ %
Work (performed work, right/left difference) [1]: +5 Δ %
Muscle weight (right/left difference) [3]: 0 Δ %

CCCCn1cnc2c1c(=O)n(CP(C)(C)=O)c(=O)n2CCCC [Example 72, [1-(3,7-Dibutylxanthin-1-yl)methyl]dimethylphosphine Oxide]
Force (force under the contraction curve, right/left difference) [1]: -2 Δ %
Work (performed work, right/left difference) [1]: +4 Δ %
Muscle weight (right/left difference) [3]: -18 Δ %
